The results in this text go back to patent US9056891B2, “Synthetic peptide inhibitors of Wnt pathway” (The United States of America, as represented by the …, priority 2010, dated 2015).

The test system of one assay is 4T1 cells. The experiment in a line: Toxicity (growth inhibition) for 4T1 cells. It is filed as cell-based, mouse. The protocol:
To identify a mouse model for preclinical development of compounds, mouse cell lines were tested for (1) growth inhibition by the compounds and (2) the levels of constitutive Wnt signaling TCF-reporter activity using transfection of cell with TCF/LEF-responsive firefly luciferase construct. The data further confirmed that sensitivity to compounds correlated well with the levels of canonical Wnt signaling.
Based on the data, mouse breast cancer cell line 4T1 was selected for in vivo testing.
(§1) Further optimization and testing of inhibitors was performed using this cell line. Table 5 presents toxicity data for select inhibitors for 4T1 cells and human colon cancer cell line SW-480, wherein GI50 is the concentration providing 50% growth inhibition and TGI is the total growth inhibition.

For another assay, the system named is 4T1 breast cancer. Nature of the assay: 4T1 breast cancer mouse model. Particulars: 2 mg/kg subcutaneously three times a week, alone, after three injections. It is filed as in vivo. The protocol:
CT-HC-11 has been tested in 4T1 breast cancer mouse model at two doses: 10 and 2 mg/kg injected subcutaneously three times a week alone or in combination with weekly gemcitabine (75 mg/kg).

The subject of a further assay is HT-29 cells. The format is cell-based. Particulars: 48 h. The protocol: (§2) HeLa, U3A, RKO, HCT-116, and HT-29 cells were exposed to the CT-HC-1, CT-HC-3, CT-HC-5, and CT-HC-8 inhibitors of Example 1 for 48 hours in medium containing 1% bovine fetal serum, and the resulting cell number was evaluated using a MTT assay. Each of these cell lines is relevant to the evaluation of Wnt signaling. Cervical carcinoma HeLa cells overexpress β-catenin (see, e.g., Lee et al., Int. J. Cancer, 124(2): 287-297 (2009); and Lee et al., Gynecol. Oncol., 109(2): 270-274 (2008)). β-catenin is activated in colon carcinoma RKO due to mutation in CDX2 (see, e.g., Dang et al., Oncogene, 20(35): 4884-4890 (2001)). Colon adenocarcinoma HCT116 has elevated mutated β-catenin; however, it was found in the past to be resistant to down regulation of β-catenin (see, e.g., Chan et al., Proc. Natl. Acad. Sci. USA, 99(12): 8265-8270 (2002); and Handeli et al., Mol. Cancer Ther., 7(3): 521-529 (2008)). Colon carcinoma HT-29 has truncated adenomatous polyposis coli (APC) protein, which is a common cause of canonical Wnt pathway activation in colon malignancies. Fibrosarcoma U3A cells are STAT1-negative and have uncharacterized status of Wnt pathway.
(§3) The ability of CT-HC-1 to inhibit growth and to kill cancer cells at different concentrations was further investigated in HeLa, U3A, RKO, HCT-116, and HT-29 cells. The cells were stained with Promega Non-Radioactive Cell Proliferation Assay Kit (MTT) according to the manufacture's protocol. The absorbance of the wells was determined at 544 nm by a FLUOstar/POLARstar Galaxy (BMG Lab Technologies GmbH) Microplate Reader. The assays were performed on control (C) and test (T) cells. Untreated cells were used as a control. Cellular responses were calculated from the data using the following formula: 100×[(T−T0)/(C−T0)] for T>T0 and 100×[(T−T0)/T0] for T<T0. T0 corresponds to cell density at the time of drug addition.

In another assay the test system is HeLa cells. It is filed as cell-based. The settings on record: 48 h. How it is done:
as §2, §3

A further assay concerns RKO cells. It is filed as cell-based. The settings on record: 48 h. How it is done: as §2, §3
The test system of a further assay is U3A cells. It is filed as cell-based. The settings on record: 48 h. How it is done: as §2, §3
In a further assay the test system is HCT-116 cells. The format is cell-based, human. The settings on record: 48 h. How it is done: as §2, §3
For a further assay, the system named is SW480 cells. The experiment in a line: Toxicity (growth inhibition) for SW-480 cells. It is filed as cell-based, human. The arrangement: unit not given here. The protocol: as §1
The subject of assay [1] is RKO, HT-29, HCT-116, SW-480, and SW-620 cells. The experiment in a line: Cell viability of colon cancer cells (FIGS. 2A-C). The format is cell-based. Particulars: increasing concentrations, HT-29, HCT-116, SW-480, SW-620. How it is done: The concentration (μM) of the peptide inhibitor is indicated on the x-axis and the percent viability is indicated on the y-axis.
A similar experiment was performed using RKO, HT-29, HCT-116, SW-480, and SW-620 cells. Colorectal adenocarcinoma SW-480 and SW-620 cells have truncated APC protein, which—as discussed above—is a common cause of canonical Wnt pathway activation in colon malignancies.

*1 amine or outer side, *2 acyl side, *3 side chain or, on linkers, in order; H or OH if unused. Where a SMILES comes first, the peptide text is derived from it. Bridges are numbered along the chain shown (N, C = ends). Where no end group is shown, it is not given here. [ ]: non-standard residue; d: D form. The star is where a group is joined. X1 = CCCCCCCCCCCCC(C)(N[*:1])C(=O)[*:2]; Palmitoyl = CCCCCCCCCCCCCCCC(=O)*; Aib = CC(C)(N)C(=O)O

Consider Pal-Aib-TRFLSSTLQVSLRKK-NH2 [CT-HC-11], for which the 4T1 cells TGI (total growth inhibition) in the assay on 4T1 cells was determined as 3 µM. For the same molecule, the tumor volume result with 4T1 breast cancer is on record as “significant reduction in tumor volume”.

For `CCCCCCCCCCCCC(C)(N)C(=O)N[C@@H](Cc1ccc(O)cc1)C(=O)N[C@@H](CCCCN)C(=O)N[C@@H](CCCCN)C(=O)N[C@@H](CCCNC(=N)N)C(=O)N[C@@H](CC(C)C)C(=O)N[C@@H](CO)C(=O)N[C@H](C(=O)N[C@@H](CCC(=O)O)C(=O)N[C@@H](CC(C)C)C(=O)N[C@H](C(=O)N[C@@H](CO)C(=O)N[C@@H](CO)C(=O)N[C@@H](CC(C)C)C(=O)N[C@@H](Cc1ccccc1)C(=O)N[C@@H](CCCNC(=N)N)C(=O)O)[C@@H](C)O)C(C)C` (stereo partly shown) [CT-HC-8, Doa-YKKRLSVELTSSLFR] (H-[X1]YKKRLSVELTSSLFR-OH; N-terminus and C-terminus assumed), the GI50 with HT-29 cells is more than 5 µM; in the assay on HeLa cells, 3.2 ± 0.4 µM; in the assay with RKO cells it was more than 5 µM; with U3A cells, more than 5 µM; in the assay on HCT-116 cells it was more than 5 µM. Further, the “SW480 cells TGI (total growth inhibition)” value with SW480 cells was 0.4. In the assay with 4T1 cells, this molecule had a 4T1 cells TGI (total growth inhibition) of more than 5 µM. The cell viability entry in [1] is “decreased viability”.

In the assay on 4T1 cells, Pal-TRFLSSTLQVSLRKK-NH2 [CT-HC-15] registered a 4T1 cells TGI (total growth inhibition) of 3.6 µM.

For Pal-TRFLSSTLEVSLRKKY-NH2 [CT-HC-10], the “SW480 cells TGI (total growth inhibition)” value in the assay on SW480 cells was 2.2. This molecule also had a 4T1 cells TGI (total growth inhibition) in the assay with 4T1 cells of 2 µM.

On to “Ac-YKKRLS+ELT+SLFR (Ac-YKKRLSXELTXSLFR; staple 7-11; not fully specified (residues 7, 11); printed as Ac-YKKRLS+ELT+SLFR) [CT-HC-9]”, for which the “SW480 cells TGI (total growth inhibition)” value in the assay on SW480 cells is listed as more than 5. In the assay on 4T1 cells, this molecule gave a 4T1 cells TGI (total growth inhibition) of more than 5 µM.

Pal-NKPQDYKKRLSVELTSSLFR [CT-HC-2]: the “SW480 cells TGI (total growth inhibition)” value in the assay on SW480 cells is listed as more than 5. In the assay on 4T1 cells, this molecule yielded a 4T1 cells TGI (total growth inhibition) of more than 5 µM.

In the assay on 4T1 cells, “Pal-Aib-YKKRLSVQLTSSLFR (Palmitoyl-[Aib]YKKRLSVQLTSSLFR) [CT-HC-19]” gave a 4T1 cells TGI (total growth inhibition) of more than 5 µM.

Lau-TRFLSSTLQVSLRKK-NH2 [CT-HC-23] displayed a 4T1 cells TGI (total growth inhibition) with 4T1 cells of 3.5 µM.

Pal-RFLSSTLQVSLRKK-NH2 [CT-HC-20]: in the assay on 4T1 cells, the 4T1 cells TGI (total growth inhibition) is more than 5 µM.

The molecule Cap-TRFLSSTLQVSLRKK-NH2 [CT-HC-22] had a 4T1 cells TGI (total growth inhibition) with 4T1 cells of more than 5 µM.

With `CCCCCCCCCCCCCCCC(=O)NCCCC[C@H](N)C(=O)N[C@@H](Cc1ccc(O)cc1)C(=O)N[C@@H](CCCCN)C(=O)N[C@@H](CCCCN)C(=O)N[C@@H](CCCNC(=N)N)C(=O)N[C@@H](CC(C)C)C(=O)N[C@@H](CO)C(=O)N[C@H](C(=O)N[C@@H](CCC(N)=O)C(=O)N[C@@H](CC(C)C)C(=O)N[C@H](C(=O)N[C@@H](CO)C(=O)N[C@@H](CO)C(=O)N[C@@H](CC(C)C)C(=O)N[C@@H](Cc1ccccc1)C(=O)N[C@@H](CCCNC(=N)N)C(=O)O)[C@@H](C)O)C(C)C` [CT-HC-3, Pal-ε-KYKKRLSVQLTSSLFR] (H-K(Palmitoyl)YKKRLSVQLTSSLFR-OH; N-terminus and C-terminus assumed), the 50% growth inhibitory concentration (GI50) with HT-29 cells is 2.8 ± 0.1 µM; with HeLa cells, 0.8 ± 0.08 µM; with RKO cells, 1.8 ± 0.15 µM; in the assay with U3A cells, 0.65 ± 0.045 µM; in the assay on HCT-116 cells, 4 ± 0.3 µM. Moreover, the “SW480 cells TGI (total growth inhibition)” value with SW480 cells is reported as 0.5. For the same molecule, the 4T1 cells TGI (total growth inhibition) with 4T1 cells is more than 5 µM. Besides, the cell viability result in assay [1] is listed as “decreased viability”.

Regarding “Pal-YKKRLSVELTSSLFR (Palmitoyl-YKKRLSVELTSSLFR) [CT-HC-12]”, the “SW480 cells TGI (total growth inhibition)” value in the assay with SW480 cells is more than 5. The same molecule showed a 4T1 cells TGI (total growth inhibition) in the assay on 4T1 cells of more than 5 µM.

The molecule “Pal-Aib-YKKRLSVELTSSLFR (Palmitoyl-[Aib]YKKRLSVELTSSLFR) [CT-HC-13]” showed a 4T1 cells TGI (total growth inhibition) in the assay with 4T1 cells of more than 5 µM.

For the molecule “Pal-YKKRLSVELTSSLFRTEPMAW (Palmitoyl-YKKRLSVELTSSLFRTEPMAW) [CT-HC-16]”, in the assay with SW480 cells, the “SW480 cells TGI (total growth inhibition)” value is listed as more than 5. In addition, the 4T1 cells TGI (total growth inhibition) with 4T1 cells was more than 5 µM.

Broadly, the GI50 is the concentration giving 50% growth inhibition.
